Results on 2 compounds are retold here after article PMC7399337, “Biological Properties and Absolute Configuration of Flavanones From Calceolaria thyrsiflora Graham” (Frontiers in Pharmacology, 2020).

Data set [1] relates to MDA-MB-231 human breast adenocarcinoma cells. In words: In vitro cytotoxic activity, CyQuant cell viability, 72 h. Type of data set: cell-based. The following applies: for CC50: Homo sapiens, MDA-MB-231, 72 h, read-out: LC50 ± SD. On the procedure: (§1) The used cell lines include MDA-MB-231 human breast adenocarcinoma cells, B16-F10 mouse metastatic melanoma cells and MEF primary mouse embryonic fibroblast. Cells were maintained in a DMEM high glucose medium (Mediatech, Manassas, VA, USA) supplemented with 10% (MDA-MB-231 and B16-F10) or 15% (MEF) heat-inactivated fetal bovine serum (HyClone Laboratories, South Logan, USA), 100 IU ml^-1 penicillin and 100 μg ml^-1 streptomycin while maintained at 37°C in a 5% CO2 humidified atmosphere. Cell viability was measured using a CyQuant® Direct Cell Proliferation Assay Kit (Life Technologies, Grand Island, NY, USA) following the manufacturer’s instruction. Briefly, 5,000 cells per well were seeded onto a flat-bottom 96-well plate in 200 μL final volume. Six hours after seeding, the culture medium was replaced by the medium containing the tested compounds at 0.01 to 100 µM concentrations in DMSO (0.1% final concentration) during 72 h. Untreated cells (medium containing only 0.1% DMSO) were used as controls. At the end of the incubation, 100 μL of culture medium was removed from each well and replaced by detection reagent solution provided by the kit (which is a 1:5 mixture of the reagent CyQUANT®, direct nucleic acid stain and the reagent labeled as CyQUANT® direct background suppressor I). Cells were incubated for 1 h and fluorescence emission was measured at 535 nm with excitation at 480 nm in a microplate reader (Infinite 200 PRO, Tecan, Grödig, Austria). At least four independent experiments were performed for each concentration. The results from each experiment were transformed into percentage of controls and the LC50 values were graphically obtained from the dose-response curves. The LC50 value was obtained adjusting the dose-response curve to sigmoidal curves (variable slope) using the GraphPad Prisma 6.0 software ([GraphPad-Software, 2015]).

Experiment in data set [2]: as above
Type of data set: cell-based. The following applies: mouse. On the procedure:
as §1

Data set [3] has as its system P. cinnamomi. In words: In vitro fungicidal activity, radial mycelial growth test on PDA. Type of data set: cell-based, Phytophtora cinnamomi. To be noted: Phytophthora cinnamomi, 120 h, read-out: Percentage of inhibition on in vitro mycelial growth of P. cinnamomi; for inhibition at 50 µg/mL: 50 mg/L; for inhibition at 150 µg/mL: 150 mg/L; for inhibition at 250 µg/mL: 250 mg/L. As for the experimental part:
A strain of Botrytis cinerea isolated from a naturally infected grape (Vitis vinifera) was used in all experiments. Isolated Phytophtora cinnamomi was provided by the Agricultural and Livestock Service of Valparaíso. Both strains were maintained on a potato dextrose agar (PDA) medium (DIFCO, Detroit, MI) at 4°C. The inoculum of both pathogens was grown on PDA and incubates in dark at 23°C for 5 days in the case of B. cinerea and 8 days for P. cinnamomi.
The fungicidal activity of flavanones, extracts, the negative control (C-) composed of solvent (1% ethanol), and the positive control (C+, commercial fungicide Captan® and metalaxil® for B. cinerea and P. cinnamomi, respectively) were assessed using the radial growth test technique on PDA medium as described ([Taborga et al., 2015]). All test samples were dissolved in ethanol (1%) and water, to obtain final concentrations of 50, 150, and 250 mg/L in the PDA medium. A plug (4 mm) of PDA medium with five-day-old mycelium colonies of the pathogen was placed at the center of a Petri dish with PDA medium with or without studied test samples and were incubated at 23°C in dark for 72 h (B. cinerea) and 120 h (P. cinnamomi). After incubation, the diameters of colonies were measured and the inhibition percentage was calculated as the average of three replicas compared to C-.

For data set [4], the system named is E. coli 33.1. Description: Antibacterial MIC, CLSI microdilution, human pathogens. It counts as cell-based. To be noted: Escherichia coli; E. coli 33.1 (multi-resistant); 18 h; read-out: Minimum inhibitory concentration (MIC). On the procedure:
Briefly, stock solutions (5 mg/ml) of compounds in DMSO were diluted in Mueller-Hinton broth (MHB) to the different two-fold assay concentrations. […] The obtained solution was added to MHB and serially two-fold diluted in a 96-well microplate. A sample of 100 μL of inoculum 1.5 × 10^6 colony forming unit (CFU) ml^-1 in MHB was added and then incubated at 37°C for 18 h. The assay was repeated three times. Wells containing MHB, 100 μL of inoculum, and DMSO served as negative controls.
In general terms: Broth dilution looks for growth in wells or tubes with falling amounts of substance.

Data set [5] deals with B16-F10 mouse metastatic melanoma cells. In words: In vitro cytotoxic activity, CyQuant cell viability, 72 h. Type of data set: cell-based. To be noted: for CC50: Mus musculus, B16-F10, 72 h, read-out: LC50 ± SD. As for the experimental part:
Cell viability was measured using a CyQuant® Direct Cell Proliferation Assay Kit (Life Technologies, Grand Island, NY, USA) following the manufacturer’s instruction. Briefly, 5,000 cells per well were seeded onto a flat-bottom 96-well plate in 200 μL final volume. Six hours after seeding, the culture medium was replaced by the medium containing the tested compounds at 0.01 to 100 µM concentrations in DMSO (0.1% final concentration) during 72 h. Untreated cells (medium containing only 0.1% DMSO) were used as controls. At the end of the incubation, 100 μL of culture medium was removed from each well and replaced by detection reagent solution provided by the kit (which is a 1:5 mixture of the reagent CyQUANT®, direct nucleic acid stain and the reagent labeled as CyQUANT® direct background suppressor I). […] At least four independent experiments were performed for each concentration.

Data set [6] addresses T1, 5-hLOX (Homo sapiens, UniProt P09917).
T1 construct: purchased Cayman Chemicals Inc. (Ann Arbor, MI, USA)
T1 sequence (P09917 1-674): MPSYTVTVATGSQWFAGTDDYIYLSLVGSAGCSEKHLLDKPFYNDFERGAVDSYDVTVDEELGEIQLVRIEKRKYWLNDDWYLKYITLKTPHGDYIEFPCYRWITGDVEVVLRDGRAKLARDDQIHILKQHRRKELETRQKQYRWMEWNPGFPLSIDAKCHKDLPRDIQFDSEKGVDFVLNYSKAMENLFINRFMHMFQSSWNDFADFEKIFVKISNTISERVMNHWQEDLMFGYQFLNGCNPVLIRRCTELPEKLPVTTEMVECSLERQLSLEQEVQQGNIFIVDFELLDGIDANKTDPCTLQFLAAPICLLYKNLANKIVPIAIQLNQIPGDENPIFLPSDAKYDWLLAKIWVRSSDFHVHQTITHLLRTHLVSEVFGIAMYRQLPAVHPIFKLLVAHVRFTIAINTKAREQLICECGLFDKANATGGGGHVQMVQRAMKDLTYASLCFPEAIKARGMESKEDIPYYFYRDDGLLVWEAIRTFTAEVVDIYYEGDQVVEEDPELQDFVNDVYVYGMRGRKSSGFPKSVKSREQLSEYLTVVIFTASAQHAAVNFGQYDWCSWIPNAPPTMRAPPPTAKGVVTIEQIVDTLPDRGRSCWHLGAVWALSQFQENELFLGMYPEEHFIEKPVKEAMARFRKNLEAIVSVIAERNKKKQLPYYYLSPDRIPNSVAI
In words: In vitro 5-hLOX enzyme assay (H2DCFDA fluorescence). Type of data set: biochemical. To be noted: kinetic assays, inhibitor 0–1 μM, substrate 0.2–5 μM.

Where two headings read alike, the source gives them in different places.

One may read the inhibition as the share of the control response that was lost under treatment. Take `COc1cc(O)c2c(c1)O[C@H](c1ccc(O)cc1)CC2=O` [Compound 1, (-)-(2S)-5,4’-dihydroxy-7-methoxyflavanone]: the CC50 in data set [1] was about 1100 µM. The “LC50 ± SD” value in data set [1] (MDA-MB-231, 72 h) is on record as “no significant cytotoxic activity”. Also, the CC50 at 72 h in data set [2] (MEF (non-cancerous cells), 72 h, read-out: LC50 ± SD) turned out to be 146 ± 23.4 µM. Besides, in data set [3], the inhibition at 50 µg/mL is 0%, the inhibition at 150 µg/mL stood at 0% and the inhibition at 250 µg/mL turned out to be 0%. Further, the MIC in data set [4] was over 100 µg/mL. Moreover, the “LC50 ± SD” value in data set [5] (B16-F10, 72 h) is “no significant cytotoxic activity”. The CC50 in data set [5] stood at 72 ± 7.16 µM.

As a reminder, the Ki is a measure of affinity in units of concentration, obtained from inhibition or displacement. `COc1cc(O)c2c(c1)O[C@H](c1ccc(O)c(O)c1)CC2=O` [Compound 2, (-)-(2S)-5,3’,4’-trihydroxy-7-methoxyflavanone]: the CC50 in data set [1] came out at 48.7 ± 9.32 µM. In data set [2], the CC50 at 72 h was 31 ± 3.69 µM. In data set [3], the inhibition at 50 µg/mL turned out to be 0%, the inhibition at 150 µg/mL worked out at 33 ± 5.8% and the inhibition at 250 µg/mL was 42 ± 5.3%. Further, in data set [4], the MIC is over 100 µg/mL. Besides, in data set [5] (B16-F10), the “fold less cytotoxic activity against B16-F10 than etoposide” value is 4.6 fold and the “fold less cytotoxic activity against B16-F10 than taxol” value was 17 fold. The “selectivity towards B16-F10 as compared to non-cancerous cells (MEF)” value in data set [5] (LC50 MEF versus B16-F10) was 4 fold. Moreover, the CC50 in data set [5] came to 8.07 ± 1.61 µM. In data set [6], this compound gave a Ki of 0.05 µM.
